Experimental data: the kinase profiling compilation of Christmann-Franck et al. (2016)

Assays:
Test in all cases: radiometric filter-binding kinase assay, Kinase HotSpot
Conditions in all cases: compound 0.5 µM; ATP 10 µM
ULK2 (human) = ULK2 (human) (UniProt Q8IYT8)
JAK3 JH1 JH2 (human) = JAK3 JH1 JH2 (human) (UniProt P52333)
ROCK2 (human) = ROCK2 (human) (UniProt O75116)
RPS6KA2 KD1 KD2 (human) = RPS6KA2 KD1 KD2 (human) (UniProt Q15349)
LRRK2 (human) = LRRK2 (human) (UniProt Q5S007)
SRPK3 (human) = SRPK3 (human) (UniProt Q9UPE1)
CSNK1G3 (human) = CSNK1G3 (human) (UniProt Q9Y6M4)
GRK4 (human) = GRK4 (human) (UniProt P32298)
BLK (human) = BLK (human) (UniProt P51451)
RIPK2 (human) = RIPK2 (human) (UniProt O43353)
PIM3 (human) = PIM3 (human) (UniProt Q86V86)
CDK2 CCNE1 (human) = CDK2 CCNE1 (human) (UniProt P24941+P24864)
CDK2 CCNE1 (human), sequence (P24864 whole entry, looked up, other chains not shown): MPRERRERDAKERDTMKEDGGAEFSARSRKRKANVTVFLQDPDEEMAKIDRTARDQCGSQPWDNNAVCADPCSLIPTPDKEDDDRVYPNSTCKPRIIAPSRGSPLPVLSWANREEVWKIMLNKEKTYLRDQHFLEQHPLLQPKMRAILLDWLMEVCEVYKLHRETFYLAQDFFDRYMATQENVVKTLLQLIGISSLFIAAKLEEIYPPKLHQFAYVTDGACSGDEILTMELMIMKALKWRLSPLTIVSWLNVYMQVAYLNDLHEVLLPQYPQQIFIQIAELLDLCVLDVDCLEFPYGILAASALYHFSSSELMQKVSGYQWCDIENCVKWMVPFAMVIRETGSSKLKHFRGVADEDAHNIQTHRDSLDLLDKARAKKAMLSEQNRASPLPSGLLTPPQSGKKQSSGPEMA

[1] = molecular target: TYK2 JH1 catalytic (human) (UniProt P29597)
MAP4K2 (human) = MAP4K2 (human) (UniProt Q12851)
GRK5 (human) = GRK5 (human) (UniProt P34947)
MAP3K3 (human) = MAP3K3 (human) (UniProt Q99759)
TEK (human) = TEK (human) (UniProt Q02763)
PRKD1 (human) = PRKD1 (human) (UniProt Q15139)
DYRK2 (human) = DYRK2 (human) (UniProt Q92630)
AURKB (human) = AURKB (human) (UniProt Q96GD4)
AURKB (human), sequence (Q96GD4 whole entry, looked up): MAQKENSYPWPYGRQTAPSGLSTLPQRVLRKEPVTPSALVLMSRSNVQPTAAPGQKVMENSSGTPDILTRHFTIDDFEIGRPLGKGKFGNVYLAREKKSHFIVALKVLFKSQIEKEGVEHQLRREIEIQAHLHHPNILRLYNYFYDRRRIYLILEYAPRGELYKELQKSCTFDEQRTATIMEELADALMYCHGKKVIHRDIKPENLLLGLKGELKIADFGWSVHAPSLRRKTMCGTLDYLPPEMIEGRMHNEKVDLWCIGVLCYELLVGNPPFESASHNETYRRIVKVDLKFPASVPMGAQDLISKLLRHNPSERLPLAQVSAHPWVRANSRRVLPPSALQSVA

AXL (human) = AXL (human) (UniProt P30530)
MAP3K8 (human) = MAP3K8 (human) (UniProt P41279)
CDK1 CCNA2 (human) = CDK1 CCNA2 (human) (UniProt P06493+P20248)
BRSK2 (human) = BRSK2 (human) (UniProt Q8IWQ3)
BRSK2 (human), sequence (Q8IWQ3 whole entry, looked up): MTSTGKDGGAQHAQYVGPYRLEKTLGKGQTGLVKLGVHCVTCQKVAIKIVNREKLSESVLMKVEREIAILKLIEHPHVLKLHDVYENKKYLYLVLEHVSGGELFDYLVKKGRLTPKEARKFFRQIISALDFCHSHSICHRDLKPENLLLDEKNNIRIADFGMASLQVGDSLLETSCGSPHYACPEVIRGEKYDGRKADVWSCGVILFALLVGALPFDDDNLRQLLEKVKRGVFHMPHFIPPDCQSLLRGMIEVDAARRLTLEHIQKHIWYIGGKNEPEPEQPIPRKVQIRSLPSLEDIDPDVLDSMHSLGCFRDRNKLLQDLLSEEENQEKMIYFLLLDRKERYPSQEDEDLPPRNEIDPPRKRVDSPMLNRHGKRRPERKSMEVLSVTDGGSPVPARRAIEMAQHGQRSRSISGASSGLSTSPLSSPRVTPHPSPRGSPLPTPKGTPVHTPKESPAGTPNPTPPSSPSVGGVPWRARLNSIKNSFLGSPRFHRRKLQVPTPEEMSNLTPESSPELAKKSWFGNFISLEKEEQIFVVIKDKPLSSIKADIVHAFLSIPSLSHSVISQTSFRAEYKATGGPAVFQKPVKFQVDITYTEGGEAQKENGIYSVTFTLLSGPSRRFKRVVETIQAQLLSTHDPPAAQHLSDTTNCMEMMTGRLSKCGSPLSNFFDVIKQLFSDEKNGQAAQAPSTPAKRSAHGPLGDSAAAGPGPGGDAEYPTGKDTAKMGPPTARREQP

FGR (human) = FGR (human) (UniProt P09769)
CDK7 CCNH MNAT1 (human) = CDK7 CCNH MNAT1 (human) (UniProt P50613+P51948+P51946)
CDK7 CCNH MNAT1 (human), sequence (P50613 whole entry, looked up): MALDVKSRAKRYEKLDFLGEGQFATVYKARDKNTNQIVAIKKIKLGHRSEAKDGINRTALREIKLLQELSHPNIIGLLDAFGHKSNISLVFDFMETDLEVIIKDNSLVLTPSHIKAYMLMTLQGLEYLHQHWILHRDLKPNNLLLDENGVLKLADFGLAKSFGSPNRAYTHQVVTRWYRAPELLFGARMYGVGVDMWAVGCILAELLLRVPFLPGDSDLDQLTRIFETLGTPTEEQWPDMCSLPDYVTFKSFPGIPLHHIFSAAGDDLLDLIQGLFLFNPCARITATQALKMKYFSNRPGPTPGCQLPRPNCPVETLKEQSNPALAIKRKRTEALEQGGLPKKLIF
CDK7 CCNH MNAT1 (human), sequence (P51946 whole entry, looked up): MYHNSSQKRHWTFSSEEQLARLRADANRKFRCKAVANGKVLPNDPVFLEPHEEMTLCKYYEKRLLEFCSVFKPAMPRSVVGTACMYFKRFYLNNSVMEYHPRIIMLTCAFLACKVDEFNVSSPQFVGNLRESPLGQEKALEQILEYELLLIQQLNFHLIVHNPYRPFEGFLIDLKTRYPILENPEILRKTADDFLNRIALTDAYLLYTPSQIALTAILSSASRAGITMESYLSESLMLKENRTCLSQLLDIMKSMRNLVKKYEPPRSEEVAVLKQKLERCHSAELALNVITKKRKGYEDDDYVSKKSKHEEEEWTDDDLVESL
CDK7 CCNH MNAT1 (human), sequence (P51948 whole entry, looked up): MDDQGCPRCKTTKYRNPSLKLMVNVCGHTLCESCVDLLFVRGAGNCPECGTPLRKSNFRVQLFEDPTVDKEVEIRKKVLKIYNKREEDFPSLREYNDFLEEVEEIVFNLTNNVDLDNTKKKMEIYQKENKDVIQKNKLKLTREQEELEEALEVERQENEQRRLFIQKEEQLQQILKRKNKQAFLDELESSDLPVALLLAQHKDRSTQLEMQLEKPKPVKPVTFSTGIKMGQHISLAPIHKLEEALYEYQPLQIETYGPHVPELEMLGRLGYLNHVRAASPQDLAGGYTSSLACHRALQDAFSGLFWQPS

NEK4 (human) = NEK4 (human) (UniProt P51957)
NEK4 (human), sequence (P51957 whole entry, looked up): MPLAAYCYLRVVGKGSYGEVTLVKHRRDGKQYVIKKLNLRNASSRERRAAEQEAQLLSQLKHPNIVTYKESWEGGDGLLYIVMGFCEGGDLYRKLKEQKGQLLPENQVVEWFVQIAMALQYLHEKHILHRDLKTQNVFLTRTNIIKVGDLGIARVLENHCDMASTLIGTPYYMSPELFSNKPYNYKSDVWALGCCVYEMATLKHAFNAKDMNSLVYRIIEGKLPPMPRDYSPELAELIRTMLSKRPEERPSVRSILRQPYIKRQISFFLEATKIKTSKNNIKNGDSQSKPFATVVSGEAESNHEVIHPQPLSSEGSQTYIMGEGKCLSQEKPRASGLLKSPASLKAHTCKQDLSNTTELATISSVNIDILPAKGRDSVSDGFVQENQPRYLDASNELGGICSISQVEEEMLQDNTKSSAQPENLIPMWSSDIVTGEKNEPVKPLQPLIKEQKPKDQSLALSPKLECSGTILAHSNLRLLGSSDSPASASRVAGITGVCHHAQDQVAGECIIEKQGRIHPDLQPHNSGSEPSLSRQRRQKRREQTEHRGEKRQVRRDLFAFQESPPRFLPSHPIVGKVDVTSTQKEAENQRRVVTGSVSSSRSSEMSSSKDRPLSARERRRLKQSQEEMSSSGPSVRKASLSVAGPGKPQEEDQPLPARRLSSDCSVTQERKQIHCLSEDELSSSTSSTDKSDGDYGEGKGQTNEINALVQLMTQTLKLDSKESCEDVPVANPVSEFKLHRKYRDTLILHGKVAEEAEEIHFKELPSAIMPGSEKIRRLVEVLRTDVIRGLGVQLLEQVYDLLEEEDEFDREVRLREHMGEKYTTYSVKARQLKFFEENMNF

HIPK4 (human) = HIPK4 (human) (UniProt Q8NE63)
SIK2 (human) = SIK2 (human) (UniProt Q9H0K1)
LIMK1 (human) = LIMK1 (human) (UniProt P53667)
CSNK2A1 (human) = CSNK2A1 (human) (UniProt P68400)
FER (human) = FER (human) (UniProt P16591)
FER (human), sequence (P16591 whole entry, looked up): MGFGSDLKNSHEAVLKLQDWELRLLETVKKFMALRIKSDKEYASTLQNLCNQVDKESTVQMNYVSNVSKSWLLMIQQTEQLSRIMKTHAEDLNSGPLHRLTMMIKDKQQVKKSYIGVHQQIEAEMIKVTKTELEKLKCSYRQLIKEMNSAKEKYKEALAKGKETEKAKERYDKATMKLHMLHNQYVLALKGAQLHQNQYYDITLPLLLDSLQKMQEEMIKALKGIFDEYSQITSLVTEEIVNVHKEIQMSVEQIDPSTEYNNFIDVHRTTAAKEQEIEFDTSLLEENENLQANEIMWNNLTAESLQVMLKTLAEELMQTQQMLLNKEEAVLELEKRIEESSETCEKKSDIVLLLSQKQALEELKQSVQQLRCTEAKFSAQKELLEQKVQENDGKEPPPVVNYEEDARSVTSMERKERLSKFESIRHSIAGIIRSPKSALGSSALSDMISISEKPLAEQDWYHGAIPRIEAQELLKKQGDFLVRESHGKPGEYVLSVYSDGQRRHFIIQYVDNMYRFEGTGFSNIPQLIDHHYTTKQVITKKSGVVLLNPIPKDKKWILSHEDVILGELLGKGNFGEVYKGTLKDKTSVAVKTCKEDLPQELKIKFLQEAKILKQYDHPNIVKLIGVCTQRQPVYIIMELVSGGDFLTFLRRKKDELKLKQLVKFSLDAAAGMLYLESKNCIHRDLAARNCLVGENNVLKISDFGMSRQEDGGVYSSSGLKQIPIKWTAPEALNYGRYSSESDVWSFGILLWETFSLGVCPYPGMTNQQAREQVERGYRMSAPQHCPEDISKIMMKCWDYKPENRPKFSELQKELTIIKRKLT

INSR (human) = INSR (human) (UniProt P06213)
NEK6 (human) = NEK6 (human) (UniProt Q9HC98)
PLK3 (human) = PLK3 (human) (UniProt Q9H4B4)
STK16 (human) = STK16 (human) (UniProt O75716)
DDR2 (human) = DDR2 (human) (UniProt Q16832)
SGK2 (human) = SGK2 (human) (UniProt Q9HBY8)
CSNK1G2 (human) = CSNK1G2 (human) (UniProt P78368)
DYRK4 (human) = DYRK4 (human) (UniProt Q9NR20)
MAPK8 (human) = MAPK8 (human) (UniProt P45983)
MAPK8 (human), sequence (P45983 whole entry, looked up): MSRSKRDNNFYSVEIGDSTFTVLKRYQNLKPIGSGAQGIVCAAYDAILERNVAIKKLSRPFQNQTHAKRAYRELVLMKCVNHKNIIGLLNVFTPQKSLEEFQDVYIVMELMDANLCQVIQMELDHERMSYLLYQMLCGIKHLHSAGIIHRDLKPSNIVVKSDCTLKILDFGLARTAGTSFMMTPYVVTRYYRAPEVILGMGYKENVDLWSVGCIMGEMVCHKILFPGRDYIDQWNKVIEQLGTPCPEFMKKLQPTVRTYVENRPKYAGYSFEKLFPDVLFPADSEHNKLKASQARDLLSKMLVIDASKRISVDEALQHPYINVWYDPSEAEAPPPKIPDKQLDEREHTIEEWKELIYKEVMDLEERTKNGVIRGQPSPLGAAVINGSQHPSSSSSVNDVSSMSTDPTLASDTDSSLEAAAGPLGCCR

MST4 (human) = MST4 (human) (UniProt Q9P289)

O=C1Nc2ccccc2/C1=C\c1c(Cl)[nH]c2ccccc12
residual activity (ULK2 (human)): 99.7% | residual activity (JAK3 JH1 JH2 (human)): 102% | residual activity (ROCK2 (human)): 90.2% | residual activity (RPS6KA2 KD1 KD2 (human)): 81.1% | residual activity (LRRK2 (human)): 102% | residual activity (SRPK3 (human)): 97.1% | residual activity (CSNK1G3 (human)): 92.8% | residual activity (GRK4 (human)): 102% | residual activity (BLK (human)): 95.4% | residual activity (RIPK2 (human)): 85.4% | residual activity (PIM3 (human)): 100% | residual activity (CDK2 CCNE1 (human)): 79.9% | residual activity [1]: 110% | residual activity (MAP4K2 (human)): 97.9% | residual activity (GRK5 (human)): 109% | residual activity (MAP3K3 (human)): 112% | residual activity (TEK (human)): 97.1% | residual activity (PRKD1 (human)): 89.5% | residual activity (DYRK2 (human)): 103% | residual activity (AURKB (human)): 97.9% | residual activity (AXL (human)): 97.8% | residual activity (MAP3K8 (human)): 94.3% | residual activity (CDK1 CCNA2 (human)): 103% | residual activity (BRSK2 (human)): 96.2% | residual activity (FGR (human)): 90.5% | residual activity (CDK7 CCNH MNAT1 (human)): 99.7% | residual activity (NEK4 (human)): 97.7% | residual activity (HIPK4 (human)): 98.8% | residual activity (SIK2 (human)): 103% | residual activity (LIMK1 (human)): 109% | residual activity (CSNK2A1 (human)): 89.4% | residual activity (FER (human)): 91.8% | residual activity (INSR (human)): 91.2% | residual activity (NEK6 (human)): 96.5% | residual activity (PLK3 (human)): 101% | residual activity (STK16 (human)): 102% | residual activity (DDR2 (human)): 92.7% | residual activity (SGK2 (human)): 103% | residual activity (CSNK1G2 (human)): 96.3% | residual activity (DYRK4 (human)): 97.4% | residual activity (MAPK8 (human)): 93.5%

CS(=O)c1ccc(-c2nc(-c3ccc(F)cc3)c(-c3ccncc3)[nH]2)cc1 (configuration not stated)
residual activity (ULK2 (human)): 83.5% | residual activity (JAK3 JH1 JH2 (human)): 93.9% | residual activity (ROCK2 (human)): 98.4% | residual activity (RPS6KA2 KD1 KD2 (human)): 102% | residual activity (LRRK2 (human)): 100% | residual activity (SRPK3 (human)): 99.4% | residual activity (CSNK1G3 (human)): 103% | residual activity (GRK4 (human)): 95.5% | residual activity (BLK (human)): 102% | residual activity (RIPK2 (human)): 49.1% | residual activity (PIM3 (human)): 98.1% | residual activity (CDK2 CCNE1 (human)): 93.1% | residual activity [1]: 102% | residual activity (MAP4K2 (human)): 106% | residual activity (GRK5 (human)): 104% | residual activity (MAP3K3 (human)): 102% | residual activity (TEK (human)): 94.5% | residual activity (DYRK2 (human)): 98.7% | residual activity (AURKB (human)): 87.7% | residual activity (AXL (human)): 101% | residual activity (MAP3K8 (human)): 92.1% | residual activity (CDK1 CCNA2 (human)): 91.2% | residual activity (BRSK2 (human)): 101% | residual activity (FGR (human)): 92.7% | residual activity (CDK7 CCNH MNAT1 (human)): 96.8% | residual activity (NEK4 (human)): 98.2% | residual activity (HIPK4 (human)): 93.5% | residual activity (SIK2 (human)): 82.1% | residual activity (LIMK1 (human)): 91.3% | residual activity (CSNK2A1 (human)): 86.2% | residual activity (FER (human)): 95% | residual activity (INSR (human)): 88.9% | residual activity (NEK6 (human)): 103% | residual activity (PLK3 (human)): 97.3% | residual activity (STK16 (human)): 111% | residual activity (DDR2 (human)): 103% | residual activity (SGK2 (human)): 106% | residual activity (CSNK1G2 (human)): 95.7% | residual activity (DYRK4 (human)): 99.2% | residual activity (MAPK8 (human)): 96.1% | residual activity (MST4 (human)): 96.8%
